Results as given in US8877748B2, “Heterocyclic fused anthraquinone derivatives, manufacturing method and pharmaceutical composition using thereof” (National Defense Medical Center, priority 2012, dated 2014).

Legend:
T-47D = assay: NCI one-dose screening, breast cancer T-47D; assay type: cell-based, human; conditions: 10 μM
MOLT-4 = assay: NCI one-dose screening, leukemia MOLT-4; assay type: cell-based, human; conditions: 10 μM
U251 = assay: NCI one-dose screening, CNS cancer U251; assay type: cell-based, human; conditions: 10 μM
HS 578-T = assay: NCI one-dose screening, breast cancer HS 578-T; assay type: cell-based, human; conditions: 10 μM; Breast cancer
K562cell line = assay: NCI one-dose screening, leukemia K562; assay type: cell-based, human; conditions: 10 μM
SNB-75 = assay: NCI one-dose screening, CNS cancer SNB-75; assay type: cell-based, human; conditions: 10 μM
SR = assay: NCI one-dose screening, leukemia SR; assay type: cell-based, human; conditions: 10 μM
HCC-2998 = assay: NCI one-dose screening, colon cancer HCC-2998; assay type: cell-based, human; conditions: 10 μM
SF-539 = assay: NCI one-dose screening, CNS cancer SF-539; assay type: cell-based, human; conditions: 10 μM
RXF, 393 = assay: NCI one-dose screening, renal cancer RXF, 393; assay type: cell-based, human; conditions: 10 μM
SK-MEL-28 = assay: NCI one-dose screening, melanoma SK-MEL-28; assay type: cell-based, human; conditions: 10 μM
SF-268 = assay: NCI one-dose screening, CNS cancer SF-268; assay type: cell-based, human; conditions: 10 μM
SK-MEL-5 = assay: NCI one-dose screening, melanoma SK-MEL-5; assay type: cell-based, human; conditions: 10 μM
CCRF-CEM = assay: NCI screening platform one-dose single concentration screening, leukemia CCRF-CEM; assay type: cell-based, human; conditions: 10 μM
HCT-116 = assay: NCI one-dose screening, colon cancer HCT-116; assay type: cell-based, human; conditions: 10 μM
SF-295 = assay: NCI one-dose screening, CNS cancer SF-295; assay type: cell-based, human; conditions: 10 μM
EKVX = assay: NCI one-dose screening, non-small cell lung cancer EKVX; assay type: cell-based, human; conditions: 10 μM
UACC-62 = assay: NCI one-dose screening, melanoma UACC-62; assay type: cell-based, human; conditions: 10 μM
COLO 205 = assay: NCI one-dose screening, colon cancer COLO 205; assay type: cell-based, human; conditions: 10 μM
OVCAR-8 = assay: NCI one-dose screening, ovarian cancer OVCAR-8; assay type: cell-based, human; conditions: 10 μM
OVCAR-3 = assay: NCI one-dose screening, ovarian cancer OVCAR-3; assay type: cell-based, human; conditions: 10 μM
SK-MEL-2 = assay: NCI one-dose screening, melanoma SK-MEL-2; assay type: cell-based, human; conditions: 10 μM
HOP-62 = assay: NCI one-dose screening, non-small cell lung cancer HOP-62; assay type: cell-based, human; conditions: 10 μM
OVCAR-4 = assay: NCI one-dose screening, ovarian cancer OVCAR-4; assay type: cell-based, human; conditions: 10 μM
BT-549 = assay: NCI one-dose screening, breast cancer BT-549; assay type: cell-based, human; conditions: 10 μM
NCI-H522 = assay: NCI one-dose screening, non-small cell lung cancer NCI-H522; assay type: cell-based, human; conditions: 10 μM
MDA, -MB-435 = assay: NCI one-dose screening, breast cancer MDA, -MB-435; assay type: cell-based, human; conditions: 10 μM; listed under Melanoma
human tumor cell lines = assay: NCI one-dose screening, Mean / Delta / Range of growth percent over all tested cell lines; assay type: cell-based; conditions: 10 μM
OVCAR-5 = assay: NCI one-dose screening, ovarian cancer OVCAR-5; assay type: cell-based, human; conditions: 10 μM
NCI-H460 = assay: NCI one-dose screening, non-small cell lung cancer NCI-H460; assay type: cell-based, human; conditions: 10 μM
CAKI-1 = assay: NCI one-dose screening, renal cancer CAKI-1; assay type: cell-based, human; conditions: 10 μM
ACHN = assay: NCI one-dose screening, renal cancer ACHN; assay type: cell-based, human; conditions: 10 μM
MALME-3M = assay: NCI one-dose screening, melanoma MALME-3M; assay type: cell-based, human; conditions: 10 μM
MDA-MB-468 = assay: NCI one-dose screening, breast cancer MDA-MB-468; assay type: cell-based, human; conditions: 10 μM
KM12 = assay: NCI one-dose screening, colon cancer KM12; assay type: cell-based, human; conditions: 10 μM
NCI-H322M = assay: NCI one-dose screening, non-small cell lung cancer NCI-H322M; assay type: cell-based, human; conditions: 10 μM; Non-small cell lung cancer
NCI-H226 = assay: NCI one-dose screening, non-small cell lung cancer NCI-H226; assay type: cell-based, human; conditions: 10 μM
SNB-19 = assay: NCI one-dose screening, CNS cancer SNB-19; assay type: cell-based, human; conditions: 10 μM
IGROV1 = assay: NCI one-dose screening, ovarian cancer IGROV1; assay type: cell-based, human; conditions: 10 μM
[1] = system: PC-3 prostate cancer cell line; assay: SRB assay cell viability, PC-3 prostate cancer cell line; assay type: cell-based, human; conditions: Homo sapiens, PC-3 prostate cancer cell line, Table II prints no unit, μM printed, read-out: SRB assay: 50% inhibition of cancer cell proliferation of sample concentration (IC50) of PC-3 prostate cancer cell line
MDA-MB-231/ATCC = assay: NCI one-dose screening, breast cancer MDA-MB-231/ATCC; assay type: cell-based, human; conditions: 10 μM
A549/ATCC = assay: NCI one-dose screening, non-small cell lung cancer A549/ATCC; assay type: cell-based, human; conditions: 10 μM
DU145 = assay: NCI one-dose screening, prostate cancer DU145; assay type: cell-based, human; conditions: 10 μM
HOP-92 = assay: NCI one-dose screening, non-small cell lung cancer HOP-92; assay type: cell-based, human; conditions: 10 μM
HL-60, TB = assay: NCI one-dose screening, leukemia HL-60, TB; assay type: cell-based, human; conditions: 10 μM
SN12C = assay: NCI one-dose screening, renal cancer SN12C; assay type: cell-based, human; conditions: 10 μM
NCl/ADR-RES = assay: NCI one-dose screening, breast cancer NCl/ADR-RES; assay type: cell-based, human; conditions: 10 μM; listed under Ovarian cancer
NCI-H23 = assay: NCI one-dose screening, non-small cell lung cancer NCI-H23; assay type: cell-based, human; conditions: 10 μM
HCT-15 = assay: NCI one-dose screening, colon cancer HCT-15; assay type: cell-based, human; conditions: 10 μM
TK-10 = assay: NCI one-dose screening, renal cancer TK-10; assay type: cell-based, human; conditions: 10 μM
UACC-257 = assay: NCI one-dose screening, melanoma UACC-257; assay type: cell-based, human; conditions: 10 μM
HT29 = assay: NCI one-dose screening, colon cancer HT29; assay type: cell-based, human; conditions: 10 μM
PC-3 = assay: NCI one-dose screening, prostate cancer PC-3; assay type: cell-based, human; conditions: 10 μM
MCF7 = assay: NCI one-dose screening, breast cancer MCF7; assay type: cell-based, human; conditions: 10 μM
M14 = assay: NCI one-dose screening, melanoma M14; assay type: cell-based, human; conditions: 10 μM
UO-31 = assay: NCI one-dose screening, renal cancer UO-31; assay type: cell-based, human; conditions: 10 μM
PRMI-8226 cell line = assay: NCI one-dose screening, leukemia PRMI-8226; assay type: cell-based, human; conditions: 10 μM
LOX IMVI = assay: NCI one-dose screening, melanoma LOX IMVI; assay type: cell-based, human; conditions: 10 μM
786-O = assay: NCI one-dose screening, renal cancer 786-O; assay type: cell-based, human; conditions: 10 μM

## O=C1c2ccccc2C(=O)c2c1cc(Nc1ccc(Cl)cc1)c1nsnc21 [C60, 4-(4-chloro-phenylamino)anthra[2,1-c] [1,2,5]thiadiazol-6,11-dione]
T-47D
  Growth Percent T-47D: 65.23%
MOLT-4
  Growth Percent MOLT-4: 11.82%
U251
  Growth Percent U251: 35.47%
HS 578-T
  Growth Percent HS 578T: 76.50%
K562cell line
  Growth Percent K562: 32.82%
SNB-75
  Growth Percent SNB-75: 69.41%
SR
  Growth Percent SR: 19.52%
HCC-2998
  Growth Percent HCC-2998: 91.26%
SF-539
  Growth Percent SF-539: 69.85%
RXF, 393
  Growth Percent RXF 393: 66.60%
SK-MEL-28
  Growth Percent SK-MEL-28: 77.13%
SF-268
  Growth Percent SF-268: 63.91%
SK-MEL-5
  Growth Percent SK-MEL-5: 29.92%
CCRF-CEM
  Growth Percent CCRF-CEM: 44.80%
HCT-116
  Growth Percent HCT-116: 40.51%
SF-295
  Growth Percent SF-295: 78.76%
EKVX
  Growth Percent EKVX: 81.16%
UACC-62
  Growth Percent UACC-62: 64.65%
COLO 205
  Growth Percent COLO 205: 94.87%
OVCAR-8
  Growth Percent OVCAR-8: 45.71%
OVCAR-3
  Growth Percent OVCAR-3: 76.23%
SK-MEL-2
  Growth Percent SK-MEL-2: 84.09%
HOP-62
  Growth Percent HOP-62: 71.23%
OVCAR-4
  Growth Percent OVCAR-4: 9.58%
BT-549
  Growth Percent BT-549: 96.78%
NCI-H522
  Growth Percent NCI-H522: 49.77%
MDA, -MB-435
  Growth Percent MDA-MB-435: 72.21%
Human tumor cell lines; delta over all cell lines
  Growth Percent Delta: 53.61%
Human tumor cell lines; mean over all cell lines
  Growth Percent Mean: 63.19%
Human tumor cell lines; range over all cell lines
  Growth Percent Range: 111.63%
OVCAR-5
  Growth Percent OVCAR-5: 121.21%
NCI-H460
  Growth Percent NCI-H460: 29.27%
CAKI-1
  Growth Percent CAKI-1: 58.59%
ACHN
  Growth Percent ACHN: 70.10%
MALME-3M
  Growth Percent MALME-3M: 61.29%
MDA-MB-468
  Growth Percent MDA-MB-468: 32.52%
KM12
  Growth Percent KM12: 71.40%
NCI-H322M
  Growth Percent NCI-H322M: 91.20%
NCI-H226
  Growth Percent NCI-H226: 66.43%
SNB-19
  Growth Percent SNB-19: 87.03%
IGROV1
  Growth Percent IGROV1: 55.18%
[1]
  IC50: 9.5 µM
MDA-MB-231/ATCC
  Growth Percent MDA-MB-231/ATCC: 57.00%
A549/ATCC
  Growth Percent A549/ATCC: 72.79%
DU145
  Growth Percent DU145: 87.28%
HOP-92
  Growth Percent HOP-92: 88.03%
HL-60, TB
  Growth Percent HL-60(TB): 23.13%
SN12C
  Growth Percent SN12C: 81.98%
NCl/ADR-RES
  Growth Percent NCI/ADR-RES: 55.91%
NCI-H23
  Growth Percent NCI-H23: 58.67%
HCT-15
  Growth Percent HCT-15: 37.73%
TK-10
  Growth Percent TK-10: 100.37%
UACC-257
  Growth Percent UACC-257: 69.64%
HT29
  Growth Percent HT29: 91.07%
PC-3
  Growth Percent PC-3: 42.48%
MCF7
  Growth Percent MCF7: 59.01%
M14
  Growth Percent M14: 106.75%
UO-31
  Growth Percent UO-31: 49.04%
PRMI-8226 cell line
  Growth Percent RPMI-8226: 36.51%
LOX IMVI
  Growth Percent LOX IMVI: 27.09%
786-O
  Growth Percent 786-0: 95.95%

## O=C1c2ccccc2C(=O)c2c1cc(Nc1ccc(Cl)cc1F)c1nsnc21 [C65, 4-(4-chloro-2-fluoro-phenylamino)anthra [2,1-c][1,2,5]thiadiazol-6,11-dione]
MOLT-4
  Growth Percent MOLT-4: 20.18%
U251
  Growth Percent U251: 43.08%
K562cell line
  Growth Percent K562: 35.29%
SNB-75
  Growth Percent SNB-75: 83.19%
SR
  Growth Percent SR: 23.58%
HCC-2998
  Growth Percent HCC-2998: 97.85%
SF-539
  Growth Percent SF-539: 75.99%
RXF, 393
  Growth Percent RXF 393: 66.49%
SK-MEL-28
  Growth Percent SK-MEL-28: 87.69%
SF-268
  Growth Percent SF-268: 69.25%
SK-MEL-5
  Growth Percent SK-MEL-5: 49.49%
CCRF-CEM
  Growth Percent CCRF-CEM: 29.84%
HCT-116
  Growth Percent HCT-116: 52.51%
SF-295
  Growth Percent SF-295: 86.04%
EKVX
  Growth Percent EKVX: 80.90%
UACC-62
  Growth Percent UACC-62: 85.80%
COLO 205
  Growth Percent COLO 205: 90.97%
OVCAR-8
  Growth Percent OVCAR-8: 36.77%
OVCAR-3
  Growth Percent OVCAR-3: 10.25%
SK-MEL-2
  Growth Percent SK-MEL-2: 72.52%
HOP-62
  Growth Percent HOP-62: 79.67%
OVCAR-4
  Growth Percent OVCAR-4: −4.36%
NCI-H522
  Growth Percent NCI-H522: 47.67%
MDA, -MB-435
  Growth Percent MDA-MB-435: 27.37%
OVCAR-5
  Growth Percent OVCAR-5: 114.60%
NCI-H460
  Growth Percent NCI-H460: 81.55%
CAKI-1
  Growth Percent CAKI-1: 72.65%
ACHN
  Growth Percent ACHN: 74.11%
MALME-3M
  Growth Percent MALME-3M: 58.74%
KM12
  Growth Percent KM12: 83.42%
NCI-H322M
  Growth Percent NCI-H322M: 91.66%
NCI-H226
  Growth Percent NCI-H226: 74.35%
SNB-19
  Growth Percent SNB-19: 94.57%
IGROV1
  Growth Percent IGROV1: 69.50%
[1]
  IC50: > 15 µM
A549/ATCC
  Growth Percent A549/ATCC: 69.22%
HL-60, TB
  Growth Percent HL-60(TB): 8.17%
SN12C
  Growth Percent SN12C: 86.43%
NCl/ADR-RES
  Growth Percent NCI/ADR-RES: 48.31%
NCI-H23
  Growth Percent NCI-H23: 53.59%
HCT-15
  Growth Percent HCT-15: 45.61%
TK-10
  Growth Percent TK-10: 110.93%
UACC-257
  Growth Percent UACC-257: 50.45%
HT29
  Growth Percent HT29: 98.33%
M14
  Growth Percent M14: 118.36%
PRMI-8226 cell line
  Growth Percent RPMI-8226: 40.73%
LOX IMVI
  Growth Percent LOX IMVI: 29.97%
786-O
  Growth Percent 786-0: 114.97%
